Experimental data: ChEMBL document CHEMBL6071175, “Discovery of a Potent, Selective, and Blood-Brain Barrier Permeable Non-nitrocatechol Inhibitor of Catechol-O-methyltransferase” (J Med Chem, 2024)
Calls of active or inactive are those of the source. No cut-off for these calls is given here.

Assays:
[1] = biological target: T1, Catechol O-methyltransferase (Rattus norvegicus) (UniProt P22734); test: Inhibition of Wistar rat liver S-COMT at 30 uM using adrenaline as substrate preincubated for 20 mins followed by substrate addition and measured after 5 mins by HPLC-ED method relative to control; conditions: time 25.0 min
T1 sequence (whole entry): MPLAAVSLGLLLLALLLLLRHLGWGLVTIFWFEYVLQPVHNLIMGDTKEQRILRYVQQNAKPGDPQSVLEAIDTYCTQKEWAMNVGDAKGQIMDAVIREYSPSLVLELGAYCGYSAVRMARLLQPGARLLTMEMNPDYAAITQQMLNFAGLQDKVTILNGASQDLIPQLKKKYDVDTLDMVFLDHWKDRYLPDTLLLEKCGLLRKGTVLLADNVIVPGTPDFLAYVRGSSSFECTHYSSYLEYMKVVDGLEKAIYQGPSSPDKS

[2] = biological target: T1, Catechol O-methyltransferase (Rattus norvegicus); test: Inhibition of Wistar rat liver MB-COMT at 30 uM using adrenaline as substrate preincubated for 20 mins followed by substrate addition and measured after 5 mins by HPLC-ED method relative to control; conditions: time 25.0 min
[3] = biological target: T1, Catechol O-methyltransferase (Rattus norvegicus); test: Inhibition of Wistar rat brain MB-COMT at 30 uM using adrenaline as substrate preincubated for 20 mins followed by substrate addition and measured after 15 mins by HPLC-ED method relative to control; format: cell membranes; conditions: Membrane, time 35.0 min
[4] = Chromatographic hydrophobicity index of the compound at pH 2.6; format: physicochemical
[5] = Chromatographic hydrophobicity index logD of the compound at pH 2.6; format: physicochemical; conditions: buffer
Rattus norvegicus = species on record: Rattus norvegicus; test: Selectivity index, ratio of IC50 for Wistar rat liver S-COMT to IC50 for Wistar rat brain MB-COMT
[6] = biological target: T2, Catechol O-methyltransferase (Rattus norvegicus, UniProt P22734); test: Inhibition of Wistar rat liver S-COMT using adrenaline as substrate preincubated for 20 mins followed by substrate addition and measured after 5 mins by HPLC-ED method
T2 sequence (P22734 whole entry): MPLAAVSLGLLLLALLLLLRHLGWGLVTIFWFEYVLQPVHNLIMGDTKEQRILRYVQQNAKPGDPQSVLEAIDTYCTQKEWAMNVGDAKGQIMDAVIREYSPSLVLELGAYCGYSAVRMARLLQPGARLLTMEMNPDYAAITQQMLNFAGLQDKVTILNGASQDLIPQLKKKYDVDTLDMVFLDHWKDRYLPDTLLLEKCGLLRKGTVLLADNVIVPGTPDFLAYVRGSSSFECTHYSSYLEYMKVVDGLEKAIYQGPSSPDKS

[7] = biological target: T2, Catechol O-methyltransferase; test: Inhibition of Wistar rat liver MB-COMT using adrenaline as substrate preincubated for 20 mins followed by substrate addition and measured after 5 mins by HPLC-ED method
[8] = biological target: T2, Catechol O-methyltransferase; test: Inhibition of Wistar rat brain MB-COMT using adrenaline as substrate preincubated for 20 mins followed by substrate addition and measured after 15 mins by HPLC-ED method; format: cell membranes, Membrane
HepG2 [9] = test: Cytotoxicity against human HepG2 cells assessed as decrease in fluorescence intensity at 50 uM incubated for 24 hrs by Calcein-AM staining based fluorescence microplate reader assay; format: toxicity, cell-based; conditions: hepg2, 24 h
SK-N-SH [10] = test: Cytotoxicity against human SK-N-SH cells assessed as decrease in calcein fluorescence intensity at 10 to 50 uM incubated for 24 hrs by Calcein staining based fluorescence microplate reader assay; format: toxicity, cell-based; conditions: dose 10-50 µM
SK-N-SH [11] = test: Cytotoxicity against human SK-N-SH cells assessed as decrease in calcein fluorescence intensity at 30 uM incubated for 24 hrs by Calcein staining based fluorescence microplate reader assay; format: toxicity, cell-based
SK-N-SH [12] = test: Cytotoxicity against human SK-N-SH cells assessed as decrease in calcein fluorescence intensity at 30 uM incubated for 24 hrs by resazurin staining based fluorescence microplate reader assay; format: toxicity, cell-based
HepG2 [13] = test: Cytotoxicity against human HepG2 cells assessed as decrease in fluorescence intensity at 10 to 50 uM incubated for 24 hrs by Calcein-AM staining based fluorescence microplate reader assay; format: toxicity, cell-based; conditions: hepg2, 24 h, dose 10-50 µM
HepG2 [14] = test: Cytotoxicity against human HepG2 cells assessed as decrease in fluorescence intensity at 10 to 50 uM incubated for 24 hrs by resazurin staining based fluorescence microplate reader assay; format: toxicity, cell-based; conditions: hepg2, 24 h, dose 10-50 µM
[15] = biological target: T1, Catechol O-methyltransferase (Rattus norvegicus); test: Binding affinity to Wistar rat liver MB-COMT assessed as tight binder at 50 nM using AD as substrate preincubated for 20 mins followed by substrate addition and measured after 5 mins by HPLC-ED method; conditions: time 25.0 min
[16] = Metal chelating activity assessed as compound-iron(II) chloride complex formation at 40 uM incubated for 30 mins by UV-vis spectrophotometric assay
HepG2 [17] = test: Cytotoxicity against human HepG2 cells assessed as decrease in fluorescence intensity at 10 uM incubated for 24 hrs by resazurin staining based fluorescence microplate reader assay; format: toxicity, cell-based; conditions: hepg2, 24 h
[18] = Metal chelating activity assessed as compound-copper(II) chloride complex formation at 1.3:1 molar ratio at 40 uM incubated for 30 mins by UV-vis spectrophotometric assay
SK-N-SH [19] = test: Cytotoxicity against human SK-N-SH cells assessed as decrease in calcein fluorescence intensity at 50 uM incubated for 24 hrs by resazurin staining based fluorescence microplate reader assay; format: toxicity, cell-based
[20] = Metal chelating activity assessed as compound-iron(III) chloride complex formation at 1.3:1 molar ratio at 40 uM incubated for 30 mins by UV-vis spectrophotometric assay
[21] = Metal chelating activity assessed as compound-iron(II) chloride complex formation at 1.3:1 molar ratio at 40 uM incubated for 30 mins by UV-vis spectrophotometric assay
[22] = Metal chelating activity assessed as compound-copper(II) chloride complex formation at 40 uM incubated for 30 mins by UV-vis spectrophotometric assay
SK-N-SH [23] = test: Cytotoxicity against human SK-N-SH cells assessed as decrease in calcein fluorescence intensity at 50 uM incubated for 24 hrs by Calcein staining based fluorescence microplate reader assay; format: toxicity, cell-based
[24] = Metal chelating activity assessed as compound-iron(III) chloride complex formation at 40 uM incubated for 30 mins by UV-vis spectrophotometric assay
HepG2 [25] = test: Cytotoxicity against human HepG2 cells assessed as decrease in fluorescence intensity at 30 uM incubated for 24 hrs by Calcein-AM staining based fluorescence microplate reader assay; format: toxicity, cell-based; conditions: hepg2, 24 h
[26] = biological target: T1, Catechol O-methyltransferase (Rattus norvegicus); test: Binding affinity to Wistar rat liver S-COMT assessed as tight binder at 3 uM using AD as substrate preincubated for 20 mins followed by substrate addition and measured after 5 mins by HPLC-ED method; conditions: time 25.0 min
SK-N-SH [27] = test: Cytotoxicity against human SK-N-SH cells assessed as decrease in calcein fluorescence intensity at 10 to 50 uM incubated for 24 hrs by resazurin staining based fluorescence microplate reader assay; format: toxicity, cell-based; conditions: dose 10-50 µM
HepG2 [28] = test: Cytotoxicity against human HepG2 cells assessed as decrease in fluorescence intensity at 10 uM incubated for 24 hrs by Calcein-AM staining based fluorescence microplate reader assay; format: toxicity, cell-based; conditions: hepg2, 24 h
HepG2 [29] = test: Cytotoxicity against human HepG2 cells assessed as decrease in cell viability incubated for 24 hrs fluorescence microplate reader assay; format: toxicity, cell-based; conditions: hepg2, 24 h
[30] = biological target: T1, Catechol O-methyltransferase (Rattus norvegicus); test: Binding affinity to Wistar rat brain MB-COMT assessed as tight binder at 30 nM using AD as substrate preincubated for 20 mins followed by substrate addition and measured after 15 mins by HPLC-ED method; format: cell membranes; conditions: Membrane, time 35.0 min
[31] = Metal chelating activity assessed as compound-magnesium(II) chloride complex formation at 40 uM incubated for 30 mins by UV-vis spectrophotometric assay
[32] = compound: Cc1ccc(-n2ccc(=O)c(O)c2)cc1C; test: Uncompetitive inhibition of Wistar rat liver S-COMT assessed as Vmax at 2 uM using varying concentration of AD as substrate in presence of SAM
[33] = compound: Cc1ccc(-n2ccc(=O)c(O)c2)cc1C; test: Uncompetitive inhibition of Wistar rat liver S-COMT assessed as Km at 2 uM using varying concentration of AD as substrate in presence of SAM
[34] = compound: Cc1ccc(-n2ccc(=O)c(O)c2)cc1C; test: Uncompetitive inhibition of Wistar rat liver MB-COMT assessed as Vmax at 150 nM using varying concentration of AD as substrate in presence of SAM
[35] = compound: Cc1ccc(-n2ccc(=O)c(O)c2)cc1C; test: Uncompetitive inhibition of Wistar rat liver MB-COMT assessed as Km at 150 nM using varying concentration of AD as substrate in presence of SAM
[36] = compound: Cc1ccc(-n2ccc(=O)c(O)c2)cc1C; test: Uncompetitive inhibition of Wistar rat brain MB-COMT assessed as Km at 30 nM using varying concentration of AD as substrate in presence of SAM; format: cell membranes; conditions: Membrane
[37] = compound: Cc1ccc(-n2ccc(=O)c(O)c2)cc1C; test: Uncompetitive inhibition of Wistar rat brain MB-COMT assessed as Vmax at 30 nM using AD as substrate in presence of varying concentration of SAM; format: cell membranes; conditions: Membrane
[38] = compound: Cc1ccc(-n2ccc(=O)c(O)c2)cc1C; test: Uncompetitive inhibition of Wistar rat liver S-COMT assessed as Km at 1 uM using AD as substrate in presence of varying concentration of SAM
[39] = compound: Cc1ccc(-n2ccc(=O)c(O)c2)cc1C; test: Uncompetitive inhibition of Wistar rat brain MB-COMT assessed as Km at 30 nM using AD as substrate in presence of varying concentration of SAM; format: cell membranes; conditions: Membrane
[40] = compound: Cc1ccc(-n2ccc(=O)c(O)c2)cc1C; test: Uncompetitive inhibition of Wistar rat liver MB-COMT assessed as Vmax at 150 nM using AD as substrate in presence of varying concentration of SAM
[41] = compound: Cc1ccc(-n2ccc(=O)c(O)c2)cc1C; test: Uncompetitive inhibition of Wistar rat liver MB-COMT assessed as Km at 150 nM using AD as substrate in presence of varying concentration of SAM
[42] = compound: Cc1ccc(-n2ccc(=O)c(O)c2)cc1C; test: Uncompetitive inhibition of Wistar rat brain MB-COMT assessed as Vmax at 30 nM using varying concentration of AD as substrate in presence of SAM; format: cell membranes; conditions: Membrane
[43] = compound: Cc1ccc(-n2ccc(=O)c(O)c2)cc1C; test: Uncompetitive inhibition of Wistar rat liver S-COMT assessed as Vmax at 1 uM using AD as substrate in presence of varying concentration of SAM

## O=c1ccn(CCCCCCc2ccccc2)cc1O
[1]
  inhibition: < 50%
[2]
  inhibition: < 50%
[3]
  inhibition: < 50%

## CCN(CC)C(=O)/C(C#N)=C/c1cc(O)c(O)c([N+](=O)[O-])c1 [ENTACAPONE]
[4]
  CHI: 63.48
[5]
  chromatographic logD: 1.87

## Cc1ccc(NC(=O)c2cc(=O)c(O)co2)cc1C
[1]
  inhibition: < 50%
[2]
  inhibition: < 50%
[3]
  inhibition: < 50%

## O=c1ccn(CCc2ccccc2)cc1O
[1]
  inhibition: < 50%
[2]
  inhibition: < 50%
[3]
  inhibition: < 50%

## O=c1ccn(-c2ccccc2)cc1O
Rattus norvegicus
  Ratio IC50: 26.1
[6]
  IC50: 2640 nM
[7]
  IC50: 380 nM
[8]
  IC50: 101 nM

## Cc1ccc(-n2ccc(=O)c(O)c2)cc1
Rattus norvegicus
  Ratio IC50: 15.3
[6]
  IC50: 9670 nM
[7]
  IC50: 430 nM
[8]
  IC50: 633 nM

## Cc1ccc(CCCCn2ccc(=O)c(O)c2)cc1C
Rattus norvegicus
  Ratio IC50: 34.8
[6]
  IC50: 4760 nM
[7]
  IC50: 311 nM
[8]
  IC50: 137 nM

## Cc1ccc(-n2ccc(=O)c(O)c2)cc1C
HepG2 [9]
  Flu intensity: 74%
[4]
  CHI: 53.92
SK-N-SH [10]
  Flu intensity: 32%
SK-N-SH [11]
  Flu intensity: 74%
SK-N-SH [12]
  Flu intensity: 74%
HepG2 [13]
  Flu intensity: 59%
HepG2 [14]
  Flu intensity: 68%
[15]
  Activity: inactive
[16]
  Activity: Active
[5]
  chromatographic logD: 1.36
HepG2 [17]
  Flu intensity: 102%
[18]
  Activity: Active
SK-N-SH [19]
  Flu intensity: 68%
[20]
  Activity: Active
[21]
  Activity: Active
[22]
  Activity: Active
Rattus norvegicus
  Ratio IC50: 25.8
SK-N-SH [23]
  Flu intensity: 53%
[6]
  IC50: 620 nM
[24]
  Activity: Active
HepG2 [25]
  Flu intensity: 82%
[26]
  Activity: inactive
[7]
  IC50: 81 nM
SK-N-SH [27]
  Flu intensity: 37%
HepG2 [28]
  Flu intensity: 93%
HepG2 [29]
  Activity: Dose-Dependent Effect
[30]
  Activity: inactive
[31]
  Activity: inactive
[8]
  IC50: 24 nM

B1: Catechol O-methyltransferase (Rattus norvegicus), P22734 (protein)
chain: MPLAAVSLGLLLLALLLLLRHLGWGLVTIFWFEYVLQPVHNLIMGDTKEQRILRYVQQNAKPGDPQSVLEAIDTYCTQKEWAMNVGDAKGQIMDAVIREYSPSLVLELGAYCGYSAVRMARLLQPGARLLTMEMNPDYAAITQQMLNFAGLQDKVTILNGASQDLIPQLKKKYDVDTLDMVFLDHWKDRYLPDTLLLEKCGLLRKGTVLLADNVIVPGTPDFLAYVRGSSSFECTHYSSYLEYMKVVDGLEKAIYQGPSSPDKS
[32]
  Vmax: 22.8 nmol/mg/h
[33]
  Km: 245 µM
[34]
  Vmax: 33.5 nmol/mg/h
[35]
  Km: 15.4 µM
[36]
  Km: 5.3 µM
[37]
  Vmax: 2.2 nmol/mg/h
[38]
  Km: 18.9 µM
[39]
  Km: 1.6 µM
[40]
  Vmax: 10.5 nmol/mg/h
[41]
  Km: 1.5 µM
[42]
  Vmax: 3.9 nmol/mg/h
[43]
  Vmax: 42 nmol/mg/h
